Laboratory results published in patent publication US20200239530A1, “COMPOUNDS AND METHODS OF MODULATING PROTEIN DEGRADATION” (Vividion Therapeutics, Inc., priority 2017, published 2020).
Where two headings read alike, the source gives them in different places. Blank lines part the entries; values can stand above or below the molecule they belong to.

Assays:
Assay in all cases: Competitive cysteine profiling, probe competition (Table 2B)
Format in all cases: binding
[1] = biological target: T1, P60006 (Homo sapiens, UniProt P60006)
T1 construct: Cells were resuspended in cold PBS on ice and sonicated with a probe sonicator to achieve lysis; endogenous in cells
Text: (§1) The following 96-well sample prep protocol was used for sample preparation.

[2] = biological target: T2, Q5XKL5 (Homo sapiens, UniProt Q5XKL5)
T2 construct: 200 μL of lysate containing 5 mg/ml proteome was treated with 2 μL of 100× compound stock; endogenous in cells
Text: as §1

[3] = biological target: T3, Q9UM13 (Homo sapiens, UniProt Q9UM13)
T3 construct: Cells were resuspended in cold PBS on ice and sonicated with a probe sonicator to achieve lysis; endogenous in cells
Text: as §1

[4] = biological target: T4, Q96DX5 (Homo sapiens, UniProt Q96DX5)
T4 construct: 200 μL of lysate containing 5 mg/ml proteome was treated with 2 μL of 100× compound stock; endogenous in cells
T4 sequence (Q96DX5 1-294): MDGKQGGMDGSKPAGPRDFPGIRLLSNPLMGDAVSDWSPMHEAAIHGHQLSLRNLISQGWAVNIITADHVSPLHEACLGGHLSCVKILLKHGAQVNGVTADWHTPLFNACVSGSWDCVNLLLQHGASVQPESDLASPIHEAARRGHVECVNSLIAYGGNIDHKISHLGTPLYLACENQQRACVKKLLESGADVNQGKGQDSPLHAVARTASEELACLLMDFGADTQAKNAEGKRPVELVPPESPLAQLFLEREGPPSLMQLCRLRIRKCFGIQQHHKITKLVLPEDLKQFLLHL
Text: as §1

[5] = biological target: T5, Q96P09 (Homo sapiens, UniProt Q96P09)
T5 construct: 200 μL of lysate containing 5 mg/ml proteome was treated with 2 μL of 100× compound stock; endogenous in cells
T5 sequence (Q96P09 1-236): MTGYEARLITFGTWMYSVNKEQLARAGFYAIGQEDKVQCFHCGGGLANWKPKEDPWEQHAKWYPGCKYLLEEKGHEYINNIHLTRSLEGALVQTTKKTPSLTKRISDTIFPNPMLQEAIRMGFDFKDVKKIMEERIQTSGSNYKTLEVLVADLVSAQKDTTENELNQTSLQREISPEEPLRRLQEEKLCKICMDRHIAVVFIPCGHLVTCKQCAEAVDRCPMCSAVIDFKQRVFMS
Text: as §1

[6] = biological target: T6, Q86VP6 (Homo sapiens, UniProt Q86VP6)
T6 construct: 200 μL of lysate containing 5 mg/ml proteome was treated with 2 μL of 100× compound stock; endogenous in cells
T6 sequence (Q86VP6 1-1230): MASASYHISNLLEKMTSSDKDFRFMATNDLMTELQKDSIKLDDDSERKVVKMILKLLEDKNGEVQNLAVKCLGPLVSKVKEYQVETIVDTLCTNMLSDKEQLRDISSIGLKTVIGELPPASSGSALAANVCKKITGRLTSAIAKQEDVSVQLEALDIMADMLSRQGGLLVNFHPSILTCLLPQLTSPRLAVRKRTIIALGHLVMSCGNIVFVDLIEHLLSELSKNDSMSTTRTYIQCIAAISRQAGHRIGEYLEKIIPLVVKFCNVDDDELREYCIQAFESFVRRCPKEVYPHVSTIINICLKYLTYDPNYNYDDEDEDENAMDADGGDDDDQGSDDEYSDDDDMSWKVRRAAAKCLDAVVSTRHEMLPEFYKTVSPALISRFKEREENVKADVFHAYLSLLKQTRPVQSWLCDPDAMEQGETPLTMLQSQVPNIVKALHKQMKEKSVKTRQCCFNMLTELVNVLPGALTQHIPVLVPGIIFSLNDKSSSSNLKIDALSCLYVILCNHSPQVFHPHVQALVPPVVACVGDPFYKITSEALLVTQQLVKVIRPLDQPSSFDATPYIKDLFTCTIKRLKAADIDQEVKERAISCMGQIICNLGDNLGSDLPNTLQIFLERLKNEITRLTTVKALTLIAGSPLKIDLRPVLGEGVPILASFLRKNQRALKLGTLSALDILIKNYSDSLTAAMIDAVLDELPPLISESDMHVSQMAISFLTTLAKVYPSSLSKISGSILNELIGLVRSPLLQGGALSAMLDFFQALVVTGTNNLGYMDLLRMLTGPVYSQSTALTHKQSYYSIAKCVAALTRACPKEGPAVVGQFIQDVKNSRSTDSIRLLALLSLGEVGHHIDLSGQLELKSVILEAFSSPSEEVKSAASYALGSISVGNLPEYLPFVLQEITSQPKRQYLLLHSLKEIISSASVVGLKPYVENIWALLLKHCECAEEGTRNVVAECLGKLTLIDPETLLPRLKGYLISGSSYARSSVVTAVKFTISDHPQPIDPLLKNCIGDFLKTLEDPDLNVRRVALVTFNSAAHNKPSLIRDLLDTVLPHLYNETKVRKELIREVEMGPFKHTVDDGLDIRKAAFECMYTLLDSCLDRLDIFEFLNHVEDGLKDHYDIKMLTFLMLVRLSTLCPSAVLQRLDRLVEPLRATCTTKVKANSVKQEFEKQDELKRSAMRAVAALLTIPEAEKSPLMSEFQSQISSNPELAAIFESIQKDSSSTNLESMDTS
Text: as §1

[7] = 100 uM, read-out: KB05_100 uM_percent_inhibition
[8] = 500 uM, read-out: KB05_500 uM_percent_inhibition
[9] = read-out: KB05_100 uM_percent_inhibition
[10] = 100 uM, read-out: KB02_100 uM_percent_inhibition
[11] = 500 uM, read-out: KB02_500 uM_percent_inhibition
[12] = read-out: KB02_100 uM_percent_inhibition

T3 sequence (Q9UM13 whole entry): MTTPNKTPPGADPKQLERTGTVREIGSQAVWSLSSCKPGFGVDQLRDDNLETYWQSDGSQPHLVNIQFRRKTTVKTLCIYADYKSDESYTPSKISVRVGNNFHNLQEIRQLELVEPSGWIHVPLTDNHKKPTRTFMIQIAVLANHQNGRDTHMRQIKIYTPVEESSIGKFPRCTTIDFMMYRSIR
T2 sequence (Q5XKL5 whole entry): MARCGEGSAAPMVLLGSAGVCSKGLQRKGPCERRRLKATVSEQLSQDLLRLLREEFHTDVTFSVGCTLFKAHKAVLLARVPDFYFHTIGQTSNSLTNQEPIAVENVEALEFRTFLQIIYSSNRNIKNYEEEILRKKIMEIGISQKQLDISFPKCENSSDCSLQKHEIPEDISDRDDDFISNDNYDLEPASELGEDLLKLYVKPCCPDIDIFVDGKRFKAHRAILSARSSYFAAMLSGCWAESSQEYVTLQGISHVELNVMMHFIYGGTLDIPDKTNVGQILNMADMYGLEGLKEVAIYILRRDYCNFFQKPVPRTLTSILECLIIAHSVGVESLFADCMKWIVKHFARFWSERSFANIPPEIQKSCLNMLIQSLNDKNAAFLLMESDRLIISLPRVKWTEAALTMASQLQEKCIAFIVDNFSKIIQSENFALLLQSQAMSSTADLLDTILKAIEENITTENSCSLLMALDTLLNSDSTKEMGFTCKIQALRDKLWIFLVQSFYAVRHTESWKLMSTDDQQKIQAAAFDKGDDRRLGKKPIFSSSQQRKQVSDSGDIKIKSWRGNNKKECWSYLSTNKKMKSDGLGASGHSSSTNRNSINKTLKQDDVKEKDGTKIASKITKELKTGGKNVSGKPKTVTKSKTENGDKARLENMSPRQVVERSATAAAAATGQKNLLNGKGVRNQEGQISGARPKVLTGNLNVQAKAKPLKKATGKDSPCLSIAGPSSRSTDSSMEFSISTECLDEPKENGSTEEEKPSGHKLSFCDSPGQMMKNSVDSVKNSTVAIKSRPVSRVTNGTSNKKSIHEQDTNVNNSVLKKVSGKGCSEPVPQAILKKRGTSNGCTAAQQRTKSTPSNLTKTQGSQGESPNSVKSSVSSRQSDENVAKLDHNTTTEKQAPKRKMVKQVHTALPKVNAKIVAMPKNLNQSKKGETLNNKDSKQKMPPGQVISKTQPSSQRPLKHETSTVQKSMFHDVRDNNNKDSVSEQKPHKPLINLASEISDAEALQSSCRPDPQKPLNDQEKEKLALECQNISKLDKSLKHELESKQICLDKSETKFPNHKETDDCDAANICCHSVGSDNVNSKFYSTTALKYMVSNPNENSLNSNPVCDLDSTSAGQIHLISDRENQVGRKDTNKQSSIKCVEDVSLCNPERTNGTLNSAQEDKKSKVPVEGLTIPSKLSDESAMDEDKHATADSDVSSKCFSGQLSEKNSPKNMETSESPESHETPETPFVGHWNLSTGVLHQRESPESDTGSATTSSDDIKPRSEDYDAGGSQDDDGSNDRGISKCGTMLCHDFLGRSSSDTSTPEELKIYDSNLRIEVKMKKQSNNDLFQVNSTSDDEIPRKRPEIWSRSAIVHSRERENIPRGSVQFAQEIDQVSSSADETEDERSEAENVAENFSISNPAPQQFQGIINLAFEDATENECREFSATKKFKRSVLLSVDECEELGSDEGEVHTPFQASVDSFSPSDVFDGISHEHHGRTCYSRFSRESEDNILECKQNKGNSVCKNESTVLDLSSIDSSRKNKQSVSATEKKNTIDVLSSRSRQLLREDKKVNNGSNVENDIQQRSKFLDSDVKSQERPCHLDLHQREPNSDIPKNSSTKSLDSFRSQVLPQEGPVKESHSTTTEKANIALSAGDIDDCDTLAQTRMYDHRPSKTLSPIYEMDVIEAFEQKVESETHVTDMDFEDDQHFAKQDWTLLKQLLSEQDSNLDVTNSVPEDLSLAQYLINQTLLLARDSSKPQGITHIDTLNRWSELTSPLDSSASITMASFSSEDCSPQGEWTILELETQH

inhibition at 100 µM [1, 7]: 24% | inhibition at 500 µM [1, 8]: 74% | KB05_500 uM_percent_inhibition ([2]; 500 uM): 55% | inhibition at 500 µM [2, 8]: 37% | inhibition at 100 µM [3, 7]: 18% | inhibition at 500 µM [3, 8]: 62% | inhibition at 100 µM [4, 9]: 12% | inhibition at 500 µM ([5]; read-out: KB05_500 uM_percent_inhibition): 45% | KB05_100 uM_percent_inhibition ([6]; 100 uM): 7% | inhibition at 100 µM [6, 9]: 4%
Compound: C=CC(=O)N(c1ccccc1)c1ccc(Br)cc1 [KB05]

Compound: O=C(CCl)Nc1cc(C(F)(F)F)cc(C(F)(F)F)c1 [KBO3]
KB03_100 uM_percent_inhibition ([1]; 100 uM): 49% | KB03_500 uM_percent_inhibition ([1]; 500 uM): 65% | KB03_500 uM_percent_inhibition ([2]; 500 uM): 18% | KB03_100 uM_percent_inhibition ([3]; 100 uM): 11% | KB03_500 uM_percent_inhibition ([3]; 500 uM): 37% | KB03_100 uM_percent_inhibition ([4]; 100 uM): 33% | KB03_500 uM_percent_inhibition ([5]; 500 uM): 21% | KB03_100 uM_percent_inhibition ([6]; 100 uM): 46%

Compound: COc1ccc2c(c1)CCCN2C(=O)CCl [KB02]
inhibition at 100 µM [1, 10]: 44% | inhibition at 500 µM [1, 11]: 93% | inhibition at 100 µM [2, 10]: 27% | inhibition at 100 µM [3, 10]: 1% | inhibition at 500 µM [3, 11]: 53% | inhibition at 100 µM [4, 12]: 30% | inhibition at 500 µM ([5]; read-out: KB02_500 uM_percent_inhibition): 38% | KB02_100 uM_percent_inhibition ([6]; 100 uM): 27% | inhibition at 100 µM [6, 12]: 47%
